Series [1] can be described thus: Administration to premenopausal healthy females for 14 days. The settings on record: 32 premenopausal healthy females (20 to 45 years old), 1 to 25 mg/day for 14 days. Format: in vivo, human. The protocol:
To 32 premenopausal healthy females (20 years old to 45 years old), 1 to 25 mg/day of the compound of Reference Example 7 was administered for 14 days. As a result, the serum estradiol concentration was reduced, but hot flash was not observed.

In another series the target is T1, rat GnRH receptor (Rattus norvegicus, UniProt P30969).
T1 construct: Anterior pituitaries were removed from 40 Whister rats (8 weeks old, male); from tissue; host or cells: rat anterior pituitary membrane fraction
T1 sequence (P30969 1-327): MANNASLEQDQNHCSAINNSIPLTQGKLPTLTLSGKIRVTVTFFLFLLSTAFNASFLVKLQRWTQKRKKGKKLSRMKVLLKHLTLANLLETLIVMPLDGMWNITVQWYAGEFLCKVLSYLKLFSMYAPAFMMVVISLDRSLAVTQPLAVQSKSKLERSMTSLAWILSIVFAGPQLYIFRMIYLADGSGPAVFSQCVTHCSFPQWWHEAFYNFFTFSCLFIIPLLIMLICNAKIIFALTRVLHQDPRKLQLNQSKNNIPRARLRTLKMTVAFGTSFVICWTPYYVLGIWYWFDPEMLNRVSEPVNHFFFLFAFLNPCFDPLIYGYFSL
The series is described as follows: 125I-leuprorelin binding inhibition, rat anterior pituitary membrane fraction. Conditions: 1 μM compound, 4° C., 90 minutes, read-out: Binding inhibiting rate (%) Rat (1 μM).

Structures can show the parent of a compound that is named as a salt.

Turning to `CONC(=O)Nc1ccc(-c2sc3c(c2CN(C)Cc2ccccc2)c(=O)n(-c2ccccc2)c(=O)n3Cc2c(F)cccc2F)cc1` [Reference Example 7, 5-(N-benzyl-N-methylaminomethyl)-1-(2,6-difluorobenzyl)-6-[4-(3-methoxyureido)phenyl]-3-phenylthieno[2,3-d]pyrimidine-2,4(1H, 3H)-dione], in series [1], the hot flash entry is reported as “not observed” and the serum estradiol concentration entry is given as “reduced”.
`CONC(=O)Nc1ccc(-c2sc3c(c2CN(C)Cc2ccccc2)c(=O)n(-c2ccccc2)c(=O)n3Cc2c(F)cccc2F)cc1` [Reference Example 8, 5-(N-benzyl-N-methylaminomethyl)-1-(2,6-difluorobenzyl)-6-[4-(3-methoxyureido)phenyl]-3-phenylthieno[2,3-d]pyrimidine-2,4(1H, 3H)-dione hydrochloride]: the inhibition at 1 µM on rat GnRH receptor was determined as 27%.

Values taken from patent US20050250793A1, “Preventives/remedies for hot flash” (priority 2002, published 2005).
